From patent publication US9556217B2, “Amphiphilic compounds” (WISCONSIN ALUMNI RESEARCH FOUNDATION, priority 2012, dated 2017)

Columns and labels:
[1] = Hydrodynamic radius of micelles by dynamic light scattering; format: physicochemical; conditions: Mean ± SD, n = 5
Source text: These values are somewhat smaller than the CMC of DDM, which indicates a strong tendency of the new agents to self-assemble, and which can be advantageous for IMP handling because detrimental levels of non-micellar amphiphile can be avoided. Table 1 provides the hydrodynamic radius (Rh) of the micelles formed by each amphiphile, as determined by dynamic light scattering (DLS). The micelles formed by GLC amphiphiles are slightly smaller than those formed by DDM, while the micelles formed by GDN are slightly larger.

β2AR-T4L = β2AR-T4L thermostability (Tm, carazolol fluorescence); design: species or system human; conditions: for β2AR-T4L Tm comparison at higher concentrations: higher concentrations than CMC+0.05 wt %
Experimental: To assess the new amphiphiles with a GPCR, a human 132 adrenergic receptor-T4-lysozyme fusion protein (β2AR-T4L) was used (Rosenbaum et al., Science 2007, 318, 1266-1273). Stability was assessed via […] of β2AR-T4L bound to the inverse agonist carazolol. β2AR-T4L was initially solubilized and purified with DDM, and this detergent was then exchanged for the agent to be evaluated. The fluorescence emission maximum of carazolol occurs at 356 nm in aqueous solution, but emission is shifted to 341 nm in the receptor-bound state. The 341:356 nm peak intensity ratio was used to monitor the relative amounts of intact and denatured β2AR-T4L, with Tm defined as the temperature at which the 341:356 nm peak intensity ratio is half-way between that of fully native receptor and the fully denatured receptor.
Stability of β2AR-T4L was assessed by measuring the melting temperature (Tm) of the receptor according to the procedure reported by Chae and coworkers (Nat. Methods 2010, 7, 1003-1008).
A receptor fusion protein of T4 lysozyme inserted in the 3rd intracellular loop of the β2AR^4 was cloned into BestBac baculovirus (Expression Systems, CA) and expressed in Sf9 insect cell cultures. The receptor was solubilized and purified in DDM as previously described (Kobilka, Anal. Biochem. 1995, 231, 269-271). […]
For stability measurements the carazolol-bound receptor was diluted below the CMC for DDM by adding 3 μL of the concentrated receptor in a quartz cuvette containing 600 μL buffer (100 mM NaCl, 20 mM HEPES, pH 7.5) with amphiphiles at various concentrations above their CMC. […] Fluorescence emission from carazolol was obtained following 5 min incubations from 25 to 85° C. in twelve continuous 5° C. increments. Excitation was set at 325 nm, and emission was measured from 335 to 400 nm with an integration time of 0.3 s nm-1 using a bandpass of 1 nm for both excitation and emission. The 341:356 nm peak ratio was calculated and graphed using Microsoft Excel and GraphPad Prism software.

[2] = Critical micelle concentration (fluorescent dye solubilization); format: physicochemical
Source text: The “Critical Micelle Concentration” (CMC) refers to the concentration of a detergent (e.g., an amphiphile as described herein) in an aqueous solution at which the detergent molecules self-assemble into micelles. Below the CMC, detergents are mostly monomeric; above the CMC, micelle concentration increases linearly with detergent concentration. The CMC is dependent upon many factors and is detergent-specific. The CMC of a detergent can be determined experimentally by measuring the solubilization of a water-insoluble dye or fluorophore while varying the concentration of detergent. A CMC may also be determined by measuring the diminution of the surface tension of an aqueous solution as a function of detergent concentration (CMCs determined by either method correlate with each other). The CMC is determined by extrapolating the plot of solubilization vs. concentration (or surface tension vs. concentration) in the two linear regions above and below the CMC. Where the two lines intersect is the CMC. The CMC can also be determined by the method of Nugebauer, J. M. (1990), Methods in Enzymology, 182:239-253.
The four compounds were readily prepared on a multi-gram scale (see Examples 1 and 2 below, and FIGS. 13-15), as is necessary if they are to serve as research tools. All four are highly soluble in aqueous solution (>20 wt %) and have relatively low critical micelle concentrations (CMC; determined by fluorescent dye solubilization).

| SMILES | Rh (nm), hydrodynamic radius of micelles [1] [nm] | β2AR-T4L Tm comparison at relatively low concentrations (β2AR-T4L; <CMC+0.05 wt %) | CMC [2] [µM] | CMC (wt %) [2] [wt %] | β2AR-T4L Tm comparison at higher concentrations (β2AR-T4L) |
| --- | --- | --- | --- | --- | --- |
| CCCCCCCCCCCCO[C@@H]1O[C@H](CO)[C@@H](O[C@H]2O[C@H](CO)[C@@H](O)[C@H](O)[C@H]2O)[C@H](O)[C@H]1O [DDM, dodecyl-β-D-maltoside, reference compound] | 3.42 ± 0.03 | superior to the new amphiphiles | ~170 | ~0.0087 |  |
| C[C@@H]1CC[C@@]2(OC1)O[C@H]1C[C@H]3[C@@H]4CC=C5C[C@@H](OCCC(CO[C@@H]6OC(CO)[C@@H](O[C@H]7OC(CO)[C@@H](O)C(O)C7O)C(O)C6O)CO[C@@H]6OC(CO)[C@@H](O[C@H]7OC(CO)[C@@H](O)C(O)C7O)C(O)C6O)CC[C@]5(C)[C@H]4CC[C@]3(C)[C@@H]1[C@@H]2C (stereo partly drawn) [GDN, glyco-diosgenin] | 3.86 ± 0.05 |  | ~18 | ~0.0021 | superior to DDM |
| CO[C@@H]1CC[C@@]2(C)[C@H](CC[C@@H]3[C@@H]2CC[C@]2(C)[C@@H]([C@H](C)CCCOCC(C)(CO[C@@H]4OC(CO)C(O[C@@H]5OC(CO)[C@@H](O)[C@H](O)C5O)[C@@H](O)C4O)CO[C@@H]4OC(CO)[C@@H](O[C@H]5OC(CO)[C@@H](O)[C@H](O)C5O)[C@H](O)C4O)CC[C@@H]32)C1 (stereo partly drawn) [GLC-2] | 3.32 ± 0.04 |  | ~8.0 | ~0.0009 | superior to DDM |
